{"source": "patent US20200172966A1", "about": "(YAMAGUCHI UNIVERSITY, priority 2015, published 2020)", "origin": "cited, not measured here", "conditions": "patients identified as non-high-risk based on polymorphisms of the UGT1A gene; cited from earlier work", "data": [{"smiles": "CCc1c2c(nc3ccc(OC(=O)N4CCC(N5CCCCC5)CC4)cc13)-c1cc3c(c(=O)n1C2)COC(=O)[C@]3(O)CC", "note": "[irinotecan, 1,4′-Bipiperidine-1′-carboxylic acid (S)-4,11-diethyl-3,4,12,14-tetrahydro-4-hydroxy-3,14-dioxo-1H-pyrano[3′,4′:6,7]indolizino[1,2-b]quinolin-9-yl ester]", "values": [{"measurement": "patients with a side effect", "value": 43, "unit": "%"}]}]}
